According to the supplement of paper PMC10307832:

What was measured:
Test in all cases: relative viability (nuclei count vs DMSO), 5 days (fraction); higher = more cells survive
[1] = compound: C#Cc1cccc(Nc2ncnc3cc(OCCOC)c(OCCOC)cc23)c1 [Erlotinib]
Method in brief: (§1)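 Five library-drug doses spaced by √10 were pinned onto vehicle-anchored 1536-well plates of lung cancer cell lines that had been kept overnight at 37 °C. Cells went 5 days without medium change, then were fixed, permeabilised and Hoechst-stained together, imaged at 4× and counted by MetaXpress. Viability is the ratio of treated-well to vehicle-well nuclei, taken as a median over plates. Plates required control CV below 25% and at least one doubling.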

[2] = compound: N=C(N)NC(=N)NCCc1ccccc1 [Phenformin] (anchor plate); conditions: 250 µM
Method in brief: as §1

[3] = compound: O=C(Nc1c[nH]nc1-c1nc2ccc(CN3CCOCC3)cc2[nH]1)NC1CC1 [AT9283]
Method in brief: as §1

[4] = compound: C#Cc1cccc(Nc2ncnc3cc(OCCOC)c(OCCOC)cc23)c1 [Erlotinib] + CC(=O)c1c(C)c2cnc(Nc3ccc(N4CCNCC4)cn3)nc2n(C2CCCC2)c1=O [Palbociclib] (partner 0.5 µM)
Method in brief: (§2)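 Relative viability equals treated-well nuclei counts divided by vehicle-well nuclei counts. Counts came from 4× images of lung cancer cell lines grown in 1536-well plates for 5 days after pin-tool dosing on the day after seeding. Dosing used one drug alone or a fixed anchor-drug dose plus five library-drug doses (not always all listed) in √10 steps, and values are medians of duplicate plates.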

[5] = compound: O=C(Nc1c[nH]nc1-c1nc2ccc(CN3CCOCC3)cc2[nH]1)NC1CC1 [AT9283] + O=C(c1cc(Cc2n[nH]c(=O)c3ccccc23)ccc1F)N1CCN(C(=O)C2CC2)CC1 [Olaparib] (partner 8 µM)
Method in brief: as §2

Row | Cell Line | relative viability ([1]; 0.02 µM) | relative viability ([1]; 0.2 µM) | relative viability ([1]; 0.6325 µM) | relative viability ([1]; 2 µM) | relative viability [2] | relative viability ([3]; 0.003 µM) | relative viability ([3]; 0.03 µM) | relative viability ([3]; 0.09487 µM) | relative viability ([3]; 0.3 µM) | relative viability ([4]; first compound 0.02 µM) | relative viability ([4]; first compound 0.2 µM) | relative viability ([4]; first compound 0.6325 µM) | relative viability ([4]; first compound 2 µM) | relative viability ([5]; first compound 0.003 µM) | relative viability ([5]; first compound 0.03 µM) | relative viability ([5]; first compound 0.09487 µM) | relative viability ([5]; first compound 0.3 µM)
1 | NCI-H520 | 1.04 | 0.899 | 1.1 | 1.03 | 0.671 | 0.76 | 0.551 | 0.372 | 0.223 | 0.202 | 0.223 | 0.272 | 0.311 | 0.32 | 0.205 | 0.223 | 0.22
2 | NCI-H522 | 0.949 | 1.03 | 0.86 | 0.816 | 0.639 | 0.776 | 0.618 | 0.611 | 0.464 | 0.908 | 0.969 | 0.883 | 0.824 | 0.619 | 0.553 | 0.453 | 0.575
3 | NCI-H647 | 0.878 | 0.829 | 1.08 | 0.912 | 0.554 | 0.902 | 0.434 | 0.167 | 0.11 | 0.417 | 0.307 | 0.562 | 0.316 | 0.555 | 0.311 | 0.0867 | 0.0596
4 | NCI-H650 | 0.827 | 0.974 | 1.06 | 0.806 | 0.464 | 0.835 | 0.883 | 0.633 | 0.204 | 0.317 | 0.341 | 0.335 | 0.35 | 0.396 | 0.399 | 0.215 | 0.146
5 | NCI-H661 | 1 | 0.939 | 1.01 | 0.81 | 0.285 | 0.981 | 0.491 | 0.388 | 0.39 | 0.418 | 0.43 | 0.383 | 0.355 | 0.759 | 0.499 | 0.371 | 0.418
6 | NCI-H727 | 0.924 | 0.768 | 0.844 | 0.769 | 0.578 | 0.98 | 0.746 | 0.502 | 0.406 | 0.615 | 0.513 | 0.586 | 0.476 | 0.84 | 0.768 | 0.494 | 0.496
7 | NCI-H838 | 1 | 0.896 | 1.14 | 0.883 | 0.634 | 0.969 | 0.517 | 0.313 | 0.253 | 0.225 | 0.205 | 0.225 | 0.211 | 0.745 | 0.323 | 0.183 | 0.164
8 | NCI-H1355 | 0.978 | 0.878 | 0.956 | 0.755 | 0.456 | 0.956 | 0.971 | 0.68 | 0.197 | 0.387 | 0.344 | 0.325 | 0.269 | 0.803 | 0.708 | 0.329 | 0.246
9 | NCI-H1395 | 0.865 | 0.88 | 1.08 | 0.981 | 0.451 | 0.789 | 0.662 | 0.39 | 0.393 | 0.619 | 0.532 | 0.657 | 0.571 | 0.414 | 0.46 | 0.38 | 0.358
10 | NCI-H1437 | 1.01 | 1.03 | 1.03 | 0.958 | 0.296 | 0.95 | 0.976 | 0.55 | 0.22 | 0.308 | 0.27 | 0.319 | 0.281 | 0.616 | 0.549 | 0.3 | 0.277
11 | NCI-H1650 | 0.739 | 0.756 | 0.838 | 0.671 | 0.465 | 0.933 | 0.788 | 0.447 | 0.3 | 0.265 | 0.287 | 0.309 | 0.245 | 0.759 | 0.808 | 0.693 | 0.48
12 | NCI-H1651 | 1.03 | 0.896 | 1.04 | 0.946 | 0.328 | 0.951 | 0.999 | 0.875 | 0.455 | 0.527 | 0.474 | 0.514 | 0.478 | 0.176 | 0.189 | 0.209 | 0.243
13 | NCI-H1666 | 0.973 | 0.928 | 0.855 | 0.728 | 0.571 | 0.975 | 0.847 | 0.66 | 0.535 | 0.624 | 0.613 | 0.631 | 0.74 | 0.739 | 0.724 | 0.608 | 0.533
14 | NCI-H1734 | 1.02 | 0.869 | 0.996 | 0.934 | 0.42 | 0.925 | 0.47 | 0.336 | 0.27 | 0.346 | 0.342 | 0.372 | 0.41 | 0.643 | 0.414 | 0.293 | 0.259
15 | NCI-H1755 | 1 | 1.02 | 1.06 | 0.935 | 0.626 | 1.02 | 1.01 | 0.617 | 0.639 | 0.454 | 0.449 | 0.446 | 0.458 | 0.987 | 0.859 | 0.53 | 0.45
16 | NCI-H1792 | 0.875 | 0.821 | 0.92 | 0.742 | 0.343 | 0.887 | 0.886 | 0.943 | 0.376 | 0.612 | 0.541 | 0.639 |  | 0.468 | 0.491 | 0.358 | 0.252

Row | Cell Line | relative viability ([1]; 0.02 µM) | relative viability ([1]; 0.2 µM) | relative viability ([1]; 0.6325 µM) | relative viability ([1]; 2 µM) | relative viability [2] | relative viability ([3]; 0.003 µM) | relative viability ([3]; 0.03 µM) | relative viability ([3]; 0.09487 µM) | relative viability ([3]; 0.3 µM) | relative viability ([4]; first compound 0.02 µM) | relative viability ([4]; first compound 0.2 µM) | relative viability ([4]; first compound 0.6325 µM) | relative viability ([4]; first compound 2 µM) | relative viability ([5]; first compound 0.003 µM) | relative viability ([5]; first compound 0.03 µM) | relative viability ([5]; first compound 0.09487 µM) | relative viability ([5]; first compound 0.3 µM)
17 | NCI-H1793 |  | 0.521 | 0.63 | 0.455 | 0.401 | 0.858 | 1.03 | 0.39 | 0.321 | 0.252 | 0.241 | 0.247 | 0.241 | 0.986 | 0.841 | 0.451 | 0.257
18 | NCI-H1915 | 1.07 | 1.01 |  | 0.977 | 0.359 | 0.925 | 0.929 | 0.461 | 0.256 | 0.522 | 0.526 | 0.599 | 0.502 | 0.266 | 0.228 | 0.17 | 0.143
19 | NCI-H1944 |  | 0.72 | 0.916 | 0.594 | 0.206 | 0.903 | 0.629 | 0.367 | 0.268 | 0.331 | 0.242 | 0.264 | 0.231 | 0.401 | 0.361 | 0.205 | 0.206
20 | NCI-H1975 | 0.946 | 0.961 | 1.11 | 0.786 | 0.409 | 0.944 | 1.03 | 0.801 | 0.545 | 0.539 | 0.611 | 0.639 | 0.472 | 0.731 | 0.723 | 0.783 | 0.647
21 | NCI-H1993 | 0.965 | 0.748 | 0.714 |  | 0.497 | 0.961 | 0.907 | 0.59 | 0.497 | 0.585 | 0.561 | 0.503 | 0.514 | 1.07 | 1 | 0.552 | 0.391
22 | NCI-H2009 | 1.07 | 0.998 | 1.08 | 0.996 | 0.485 | 1.03 | 0.859 | 0.423 | 0.26 | 0.173 | 0.205 | 0.235 | 0.203 | 0.716 | 0.636 | 0.458 | 0.0682
23 | NCI-H2023 | 0.966 | 0.89 | 0.946 | 0.758 | 0.43 | 1.03 | 0.935 | 0.266 | 0.138 | 0.393 | 0.351 | 0.297 | 0.225 | 0.511 | 0.409 | 0.21 | 0.0856
24 | NCI-H2085 | 0.932 | 0.851 | 0.843 | 0.699 | 0.724 | 1 | 0.946 | 0.937 | 0.447 | 0.465 | 0.44 | 0.379 | 0.381 | 0.834 | 0.772 | 0.629 | 0.292
25 | NCI-H2087 | 1.03 | 1.03 | 1.07 | 0.879 | 0.453 | 0.988 | 0.63 | 0.269 | 0.16 | 0.238 | 0.246 | 0.212 | 0.226 | 0.71 | 0.416 | 0.194 | 0.154
26 | NCI-H2126 | 0.961 | 0.82 | 0.773 | 0.636 | 0.535 | 0.963 | 0.991 | 0.829 | 0.407 | 0.381 | 0.364 | 0.349 | 0.367 | 0.978 | 0.938 | 0.698 | 0.364
27 | NCI-H2170 | 1.02 | 0.996 | 0.872 | 0.656 | 0.439 | 0.991 | 0.864 | 0.471 | 0.197 | 0.374 | 0.36 | 0.379 | 0.282 | 0.613 | 0.385 | 0.14 | 0.146
28 | NCI-H2228 | 0.959 | 1 | 1.07 | 0.871 | 0.318 | 1.08 | 0.769 | 0.33 | 0.187 | 0.805 | 0.739 |  | 0.572 | 0.675 | 0.455 | 0.228 | 0.153
29 | NCI-H2342 | 0.903 | 0.891 | 0.84 | 0.725 | 0.607 | 1.04 | 0.877 | 0.78 | 0.424 | 0.469 | 0.439 | 0.457 | 0.591 | 0.476 | 0.434 | 0.384 | 0.292
30 | NCI-H2347 | 1.03 | 1.06 | 0.987 | 0.952 | 0.421 | 1.16 | 1 | 0.597 | 0.514 | 0.432 | 0.415 | 0.429 | 0.468 | 0.595 | 0.615 | 0.477 | 0.413
31 | NCI-H2405 | 0.986 | 1 | 1.12 | 0.956 | 0.379 | 1 | 0.965 | 0.519 | 0.256 | 0.534 | 0.521 | 0.535 | 0.54 | 0.941 | 0.615 | 0.333 | 0.217
